Source: patent publication US6984513B2, “Anaerobe targeted enzyme-mediated prodrug therapy” (priority 1994, dated 2006)

Legend:
[1] = cited from earlier work
[2] = system: SCCVII cells; test: Growth inhibition of SCCVII cells by 5-FC or 5-FU with or without cell extract from recombinant C. sporogenes
Protocol: The function of the C. sporogenes-derived cytosine deaminase was tested by assaying its ability to convert the nontoxic 5-fluorocytosine (5-FC) to the toxic 5-fluorouracil (5-FU).

[3] = system: Walker 256 rat carcinoma; details: cited from earlier work
[4] = system: Walker carcinoma cells; details: cited from earlier work
[5] = system: mouse and human tumor cell lines; details: cited from earlier work
[6] = system: SCCVII tumor cells; test: Cell killing of SCCVII cells exposed to CB1954, NADH and supernatant from wild type or recombinant C. acetobutylicum (colony growth); details: 2 hr incubation, NADH 500 μM
Protocol: The ability of recombinant C. acetobutylicum to activate CB1954 was also tested in vitro, also as described in Example 1. Briefly, recombinant and wild type C. acetobutylicum were inoculated into medium, and after overnight incubation, the cultures were centrifuged and the supernatant collected. The supernatant was added to cultures of SCCVII tumor cells, along with addition of various concentrations of CB1954 in DMSO. After incubation for two hours, the cells were counted by hemocytometer, and appropriate dilutions plated and incubated for colony growth.
In order to test the ability of recombinant C. acetobutylicum to activate CB1954, recombinant and wild type C. acetobutylicum were inoculated into 20 ml of medium. After overnight incubation, the cultures were centrifuged and the supernatant collected and diluted 1:3 with Waymouth's growth medium. […] To these cultures, different concentrations of CB1954 in DMSO were added, and the amount of DMSO adjusted in all of the cultures (including the controls) to 1% DMSO. Controls consisted of cell culture with only the supernatant/cell culture medium mixture. […]
After a 2 hr incubation in air at 37° C., the medium was removed, all the plates were washed 3 times with PBS, trypsinized, the cells counted by hemocytometer, and appropriate dilutions plated and incubated for 10 days in a 5% CO2 incubator at 370 C for colony growth.

[7] = target: nitroreductase enzyme from E. coli (Escherichia coli, UniProt P38489); details: cited from earlier work
[8] = prodrug alone; cited from earlier work
[9] = system: human breast and ovarian cancer cells; details: cited from earlier work

Chain of nitroreductase enzyme from E. coli (P38489 whole entry): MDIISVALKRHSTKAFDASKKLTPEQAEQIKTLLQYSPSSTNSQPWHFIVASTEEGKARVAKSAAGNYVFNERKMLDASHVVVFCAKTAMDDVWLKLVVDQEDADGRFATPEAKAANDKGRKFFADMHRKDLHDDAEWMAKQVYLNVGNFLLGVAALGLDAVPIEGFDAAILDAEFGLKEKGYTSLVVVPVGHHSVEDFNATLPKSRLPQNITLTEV

In the case of O=C(O)[C@H]1O[C@@H](n2cc(F)c(=O)[nH]c2=O)[C@H](O)[C@@H](O)[C@@H]1O [1-N-β-glucuronide of 5-fluorouracil], the stability in vivo [1] is given as “stable in vivo”.

With Nc1nc(=O)[nH]cc1F [5-FC, 5-fluorocytosine] the “effect of cell extract from C. sporogenes transformed with an empty vector on sensitivity” value [2] was “did not affect the sensitivity”, the “toxicity of 5-FC plus cell extract from recombinant C. sporogenes compared with 5-FU” value [2] was “same toxicity as 5-FU” and the “increase in cytotoxicity of 5-FC by cell extract from recombinant C. sporogenes expressing cytosine deaminase (factor)” value ([2]; cell extract 5, 10, 20 μg/ml) was 10^4.

For O=c1[nH]cc(F)c(=O)[nH]1 [5-FU, 5-fluorouracil], the “effect of cell extract from recombinant C. sporogenes on sensitivity to 5-FU” value [2] was “nor did cell extract from recombinant C. sporogenes affect sensitivity to 5-FU”.

For NC(=O)c1cc(N2CC2)c([N+](=O)[O-])cc1[N+](=O)[O-] [CB1954, 5-[aziridine-1-yl]-2,4-dinitrobenzamide], the “activity against Walker 256 rat carcinoma in vivo” value [3] is given as “potent activity”, the “activity on Walker carcinoma cells in vitro” value [4] is given as “potent activity” and the “activity against a range of mouse and human tumor cell lines” value [5] is given as “poor activity”. For the same molecule, the “difference in sensitivity between rat and human cells (factor)” value [5] was 10^4-10^5, the “enhancement of the toxicity of CB1954 by supernatant from transformed C. acetobutylicum” value [6] was “approximately 10 fold” and the “rate of reduction of CB1954 relative to that of the rat DT diaphorase” value [7] was 60 times.

In the case of “butylated ammonium salt of the glucuronide conjugate of hydroxyanaline mustard”, the “potency relative to hydroxyanaline mustard (times less potent)” value [8] is given as 10^3 times.

In the case of glucuronide conjugate of epirubicin, the “toxicity when combined with a Mab-β-glucuronidase conjugate” value [9] is given as “as toxic as epirubicin” and the “toxicity of the prodrug (fold less toxic)” value ([9]; prodrug alone) is given as “approximately 100 fold”.
